{"source": "patent US20030004123A1", "about": "“Targeted gene transfer using G protein coupled receptors” (priority 1997, published 2003)", "key": {"[1]": {"test_system": "WD human airway epithelial cells", "assay": "Cl- secretory response of WD human airway epithelial cultures to lumenal agonists", "type": "cell-based", "conditions": "agonist at 10^−4M, FIG. 3", "source_text": "Epithelial cells are derived from CF and non-CF nasal and bronchial airway epithelia using procedures similar to those described by Gray et al. 1996. Am. J Respir. Cell Mol. Biol. 14, 104-112. Resected nasal turbinates or portions of mainstem/lobar bronchi representing excess donor tissue are obtained at the time of lung transplantation under the auspices of the University of North Carolina at Chapel Hill Institutional Committee on the Protection of the Rights of Human Subjects. Epithelial cells are removed from the specimens by protease XIV digestion as described (Wu, R., et al., 1985. Am. Rev. Respir. Dis. 132, 311-320), but omitting the filtration step. 1-2×10^6 cells are plated per 100 mm tissue culture dish in modified LHC9 medium. Lechner, J. F. and Laveck, M. A. 1985. J. Tiss. Cult. Meth. 9, 43-48. The modifications include increasing the EGF concentration to 25 ng/ml, adjusting the retinoic acid concentration to 5×10^−8 M, and supplementation with 0.5 mg/ml bovine serum albumin and 0.8% bovine pituitary extract. At approximately 75% confluence, the cells are harvested by trypsinization and passage 1 cells are plated at a density of 2.5×10^5 cells on Transwell-Col inserts (Coming-Costar, 24 mm diameter, 0.4 μm pore size), in modified medium. The medium is similar to the supplemented LHC9 except that a 50:50 mixture of LHC Basal (Biofluids) and DMEM-H is used as the base, amphotericin and gentamycin are omitted and the EGF concentration is reduced to 0.5 ng/ml. After the cells grow to confluence (4-6 days) the apical surface of the cultures are given an air-liquid interface for another 25-30 days until use.\nInvestigations were carried out to identify which 7-TM receptors, if any, are localized in the apical membrane of WD human airway epithelial cells. Cultures of WD cells were exposed to NECA (an A2b receptor agonist), isoproterenol, bradykinin, or ATP (all at 10^−4M), and Cl-secretory responsiveness was determined."}, "[2]": {"molecular_target": "T1, human P2Y2-receptor (HA epitope-tag) in 1321N1 human astrocytoma cells (Homo sapiens, UniProt P41231)", "T1 construct": "expressed in transfected cells; host or cells: 1321N1 human astrocytoma cells", "T1 sequence (P41231 whole entry)": "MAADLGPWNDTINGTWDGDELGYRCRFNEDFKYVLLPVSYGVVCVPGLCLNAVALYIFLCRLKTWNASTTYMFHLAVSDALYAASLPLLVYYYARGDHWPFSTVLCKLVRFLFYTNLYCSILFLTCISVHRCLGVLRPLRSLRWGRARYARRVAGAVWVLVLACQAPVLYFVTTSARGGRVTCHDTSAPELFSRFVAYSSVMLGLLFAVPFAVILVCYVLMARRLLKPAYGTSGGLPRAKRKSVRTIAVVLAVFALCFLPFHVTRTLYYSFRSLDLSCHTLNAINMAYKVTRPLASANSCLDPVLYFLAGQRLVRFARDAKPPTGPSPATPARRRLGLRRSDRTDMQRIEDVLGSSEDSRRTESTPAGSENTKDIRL", "conditions": "ELISA, ATPγS exposures of 1 hr; cited from earlier work"}, "[3]": {"molecular_target": "T2, HA-tagged human P2Y2 receptor (Homo sapiens, UniProt P41231)", "T2 construct": "expressed in transfected cells; host or cells: A9 cells (retroviral gene transfer)", "T2 sequence (P41231 whole entry)": "as above", "assay": "Agonist-induced internalization of HA-P2Y2 receptor in A9 cells", "type": "cell-based", "conditions": "ATPγS 10^−4 M, within 45 minutes", "source_text": "To test the concept that the P2Y2 receptor is a candidate receptor for targeting based on the ability to bind and internalize an exogenous ligand, we have obtained CHO and A9 cells (both of which are not transducible by AdV) that express the HA-tagged human P2Y2 receptor (HA tag on the extracellular N-terminus) by retroviral gene transfer. HA-P2Y2 receptor expressing A9 cells, but not control cells, stain with fluorescently labeled anti-HA Abs under resting conditions. With agonist [ATPγS (10^−4 M)] exposure, approximately 80% of the receptors are internalized within 45 minutes. The internalization of P2Y2 receptor is mediated via coated pits."}, "[4]": {"molecular_target": "T1, human P2Y2-receptor (HA epitope-tag) in 1321N1 human astrocytoma cells", "assay": "Internalization of P2Y2-HA receptor in astrocytoma cells (immunofluorescence, ELISA)", "type": "cell-based", "conditions": "30 min ATPγS exposure"}, "P2Y2 receptors": {"molecular_target": "T3, P2Y2 receptors (Homo sapiens, UniProt P41231)", "T3 construct": "expressed in transfected cells; host or cells: astrocytoma cells", "T3 sequence (P41231 whole entry)": "as above", "assay": "Inositol phosphate formation in astrocytoma cells expressing P2Y2 receptors", "type": "cell-based", "conditions": "FIG. 9A", "source_text": "FIG. 9A is a graphical representation of a comparison of agonist potency of U2P4 and UTP in astrocytoma cells expressing P2Y2 receptors."}, "[5]": {"assay": "Metabolic stability in cystic fibrosis sputum", "type": "in vitro ADME", "conditions": "compared with UTP, FIG. 9B", "source_text": "FIG. 9B is a graphical representation of the metabolic stability of U2P4 compared with UTP in cystic fibrosis sputum.\nBiologically active analogs of UTP that are more resistant to biological hydrolysis than UTP have been developed for linkage to vectors. The dinucleotide U2P4 has useful properties."}}, "data": [{"compound": "Nc1ncnc2c1ncn2[C@@H]1O[C@H](COP(=O)(O)OP(=O)(O)OP(=O)(O)O)[C@@H](O)[C@H]1O", "note": "[ATP]", "values": [{"measurement": "Cl-secretory responsiveness", "setting": "[1]", "value": "the greatest response"}]}, {"compound": "Nc1ncnc2c1ncn2[C@@H]1O[C@H](COP(=O)(O)OP(=O)(O)OP(O)(O)=S)[C@@H](O)[C@H]1O", "note": "[ATPγS]", "values": [{"measurement": "internalization efficiency (loss of receptor sites)", "setting": "[2]", "value": 80, "unit": "%"}, {"measurement": "receptors internalized", "setting": "[3]", "value": "approximately 80%"}, {"measurement": "plasma membrane immunoreactivity of P2Y2-HA receptor", "setting": "[4]", "value": "clear loss of immunoreactivity from the plasma membrane"}]}, {"compound": "O=c1ccn([C@@H]2O[C@H](COP(=O)([O-])OP(=O)([O-])OP(=O)([O-])OP(=O)([O-])OC[C@H]3O[C@@H](n4ccc(=O)[nH]c4=O)[C@H](O)[C@@H]3O)[C@@H](O)[C@H]2O)c(=O)[nH]1.[Na+].[Na+].[Na+].[Na+]", "note": "[Example U2P4]", "values": [{"measurement": "agonist potency relative to UTP (inositol phosphate release)", "setting": "P2Y2 receptors", "value": "equipotent with UTP"}, {"measurement": "hydrolysis in cystic fibrosis (CF) sputum", "setting": "[5]", "value": "resistant to hydrolysis"}]}, {"compound": "CCNC(=O)[C@H]1O[C@@H](n2cnc3c(N)ncnc32)[C@H](O)[C@@H]1O", "note": "[NECA]", "values": [{"measurement": "Cl-secretory responsiveness", "setting": "[1]", "value": "a Cl-secretory response was detected"}]}, {"compound": "CC(C)NCC(O)c1ccc(O)c(O)c1", "note": "(centres unmarked) [isoproterenol]", "values": [{"measurement": "Cl-secretory responsiveness", "setting": "[1]", "value": "a Cl-secretory response was detected"}]}]}
